From patent publication US10258701B2, “Labeled evans blue dye derivative for in vivo serum albumin labeling” (The United States of America, as represented by the …, priority 2015, dated 2019)
Values joined by “and” are separate entries in the source; they are usually repeats but may differ in a detail not shown here. Equal values may be shown once.

Target: albumin (Homo sapiens, UniProt P02768)
Assay: Saturation binding assay of NEB with albumin (bound/unbound separated by agarose gel electrophoresis)
Settings: unbound NEB quantified, read-out: dissociation constant (Kd) of NEB to albumin
From the text: In a particular embodiment, the compound of formula (I) (also referred to herein as “NEB”) wherein n is 0 can be synthesized in two steps starting from o-tolidine as shown in Scheme 1. 1, 4, 7-triazacyclononane-N,N,N″-triacetic acid-3HCl (“NOTA”) was first coupled to o-tolidine using diethyl cyanophosphonate to give NOTA-o-tolidine in 26% yield after preparative reversed-phase HPLC. NOTA-o-tolidine was then coupled to 1-amino-8-naphthol-2,4-disulfonic acid to give NEB through the formation of diazonium salt with a yield of 46.6%. The purity of the product was >98% based on HPLC analysis and the identity of the product was confirmed by LC-MS. This truncated version of Evans blue retained the binding ability with albumin since stable NEB/albumin complex was confirmed by LC/MS. The complex formation was also confirmed by saturation binding assay. The bound NEB could be separated from the unbound NEB using agarose gel electrophoresis. […] The ^18F-AlF complex of NEB is also referred to herein as ^18F-AlF-NEB. The ^64CU complex of NEB is also referred to herein as ^64Cu-NEB.

Sequence of albumin (P02768 25-609, species assumed): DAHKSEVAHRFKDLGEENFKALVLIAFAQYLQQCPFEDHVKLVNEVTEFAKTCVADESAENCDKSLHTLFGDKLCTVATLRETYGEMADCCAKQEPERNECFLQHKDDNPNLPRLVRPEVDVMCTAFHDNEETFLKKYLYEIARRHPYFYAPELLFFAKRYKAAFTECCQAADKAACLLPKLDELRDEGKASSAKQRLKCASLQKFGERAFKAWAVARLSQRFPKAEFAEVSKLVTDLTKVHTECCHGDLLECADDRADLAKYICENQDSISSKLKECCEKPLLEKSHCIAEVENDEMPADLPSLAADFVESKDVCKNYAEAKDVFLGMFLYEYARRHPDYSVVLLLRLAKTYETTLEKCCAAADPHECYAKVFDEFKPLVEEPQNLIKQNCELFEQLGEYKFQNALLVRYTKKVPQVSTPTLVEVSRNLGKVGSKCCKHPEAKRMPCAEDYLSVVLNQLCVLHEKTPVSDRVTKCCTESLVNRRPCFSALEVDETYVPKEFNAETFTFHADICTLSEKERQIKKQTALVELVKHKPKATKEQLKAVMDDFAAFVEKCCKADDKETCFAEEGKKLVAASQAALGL

Kd: 48.9 µM and ~50 µM
SMILES: Cc1cc(-c2ccc(NC(=O)CN3CCN(CC(=O)O)CCN(CC(=O)O)CC3)c(C)c2)ccc1N=Nc1ccc2c(S(=O)(=O)O)cc(S(=O)(=O)O)c(N)c2c1O [NEB]
